pIC50: −log10 of the molar value.
Biological target: TRKA (Homo sapiens (Human), UniProt P04629)
Test: Isolated TRK enzyme assay (HTRF KinEASE-TK), TRKA
Assay type: biochemical
Conditions: read-out: Trka enzyme (IC50)

TRKA, sequence (P04629 441-796): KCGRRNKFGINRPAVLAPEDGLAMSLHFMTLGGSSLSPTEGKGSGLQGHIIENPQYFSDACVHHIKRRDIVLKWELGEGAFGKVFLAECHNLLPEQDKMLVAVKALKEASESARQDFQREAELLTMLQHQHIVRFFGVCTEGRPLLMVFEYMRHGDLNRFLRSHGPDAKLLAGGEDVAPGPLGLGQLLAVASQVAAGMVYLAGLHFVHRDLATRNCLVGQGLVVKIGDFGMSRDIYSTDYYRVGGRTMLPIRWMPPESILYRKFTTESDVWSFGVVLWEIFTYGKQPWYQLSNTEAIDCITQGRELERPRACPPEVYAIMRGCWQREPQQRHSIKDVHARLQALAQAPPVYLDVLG

| pIC50 | Structure (SMILES) |
| --- | --- |
| 7.15 | CC(CO)(CO)n1cc(C(=O)c2cncc(NC(=O)Cc3ccc(Cl)cc3)c2)c2cncnc21 [Example 235, 2-(4-chlorophenyl)-N-[5-({7-[2-hydroxy-1-(hydroxymethyl)-1-methylethyl]-7H-pyrrolo[2,3-d]pyrimidin-5-yl}carbonyl)pyridin-3-yl]acetamide] |
| 7.60 | CC(CO)(CO)n1cc(C(=O)c2cncc(NC(=O)Cc3ccc(C(F)(F)F)cc3)c2)c2cncnc21 [Example 236, N-[5-({7-[2-hydroxy-1-(hydroxymethyl)-1-methylethyl]-7H-pyrrolo[2,3-d]pyrimidin-5-yl}carbonyl)pyridin-3-yl]-2-[4-(trifluoromethyl)phenyl]acetamide] |
| 7.13 | CC(CO)(CO)n1cc(C(=O)c2cncc(NC(=O)Cc3ccc(Cl)cn3)c2)c2cncnc21 [Example 237, 2-(5-chloropyridin-2-yl)-N-[5-({7-[2-hydroxy-1-(hydroxymethyl)-1-methylethyl]-7H-pyrrolo[2,3-d]pyrimidin-5-yl}carbonyl)pyridin-3-yl]acetamide] |
| 8.03 | CC(CO)(CO)n1cc(C(=O)c2cncc(NC(=O)Cc3cccc(C(F)(F)F)c3)c2)c2cncnc21 [Example 238, N-[5-({7-[2-hydroxy-1-(hydroxymethyl)-1-methylethyl]-7H-pyrrolo[2,3-d]pyrimidin-5-yl}carbonyl)pyridin-3-yl]-2-[3-(trifluoromethyl)phenyl]acetamide] |
| 7.65 | CC(CO)(CO)n1cc(C(=O)c2cncc(NC(=O)Cn3ccc(C(F)(F)F)n3)c2)c2cncnc21 [Example 239, N-[5-({7-[2-hydroxy-1-(hydroxymethyl)-1-methylethyl]-7H-pyrrolo[2,3-d]pyrimidin-5-yl}carbonyl)pyridin-3-yl]-2-[3-(trifluoromethyl)-1H-pyrazol-1-yl]acetamide] |
| 7.72 | CC(C)n1cc(C(=O)c2cncc(NC(=O)Cn3cc(C(F)(F)F)nn3)c2)c2cnc(N)nc21 [Example 240, N-{5-[(2-amino-7-isopropyl-7H-pyrrolo[2,3-d]pyrimidin-5-yl)carbonyl]pyridin-3-yl}-2-[4-(trifluoromethyl)-1H-1,2,3-triazol-1-yl]acetamide] |
| 7.34 | CC(C)n1cc(C(=O)c2cncc(NC(=O)Cc3ccc(C#N)cc3)c2)c2cnc(N)nc21 [Example 241, N-{5-[(2-amino-7-isopropyl-7H-pyrrolo[2,3-d]pyrimidin-5-yl)carbonyl]pyridin-3-yl}-2-(4-cyanophenyl)acetamide] |
| 8.06 | CC(C)n1cc(C(=O)c2cncc(NC(=O)Cc3ccc(Cl)cn3)c2)c2cnc(N)nc21 [Example 242, N-{5-[(2-amino-7-isopropyl-7H-pyrrolo[2,3-d]pyrimidin-5-yl)carbonyl]pyridin-3-yl}-2-(5-chloropyridin-2-yl)acetamide] |
| 7.42 | CC(C)n1cc(C(=O)c2cncc(NC(=O)Cc3ccc(F)cn3)c2)c2cnc(N)nc21 [Example 243, N-{5-[(2-amino-7-isopropyl-7H-pyrrolo[2,3-d]pyrimidin-5-yl)carbonyl]pyridin-3-yl}-2-(5-fluoropyridin-2-yl)acetamide] |
| 8.33 | CC(C)n1cc(C(=O)c2cncc(NC(=O)Cc3ccc(C(F)(F)F)cc3)c2)c2cnc(N)nc21 [Example 244, N-{5-[(2-amino-7-isopropyl-7H-pyrrolo[2,3-d]pyrimidin-5-yl)carbonyl]pyridin-3-yl}-2-[4-(trifluoromethyl)phenyl]acetamide] |
| 8.33 | CC(C)n1cc(C(=O)c2cncc(NC(=O)Cc3cccc(C(F)(F)F)c3)c2)c2cnc(N)nc21 [Example 245, N-{5-[(2-amino-7-isopropyl-7H-pyrrolo[2,3-d]pyrimidin-5-yl)carbonyl]pyridin-3-yl}-2-[3-(trifluoromethyl)phenyl]acetamide] |
| 7.45 | CC(C)n1cc(C(=O)c2cncc(NC(=O)Cc3ccc4ocnc4c3)c2)c2cnc(N)nc21 [Example 246, N-{5-[(2-amino-7-isopropyl-7H-pyrrolo[2,3-d]pyrimidin-5-yl)carbonyl]pyridin-3-yl}-2-(1,3-benzoxazol-5-yl)acetamide] |
| 7.15 | CC(C)n1cc(C(=O)c2cncc(NC(=O)Cc3cccc(S(C)(=O)=O)c3)c2)c2cnc(N)nc21 [Example 247, N-{5-[(2-amino-7-isopropyl-7H-pyrrolo[2,3-d]pyrimidin-5-yl)carbonyl]pyridin-3-yl}-2-[3-(methylsulfonyl)phenyl]acetamide] |
| 7.63 | CC(C)c1cn(CC(=O)Nc2cncc(C(=O)c3cn(C(C)C)c4nc(N)ncc34)c2)nn1 [Example 248, N-{5-[(2-amino-7-isopropyl-7H-pyrrolo[2,3-d]pyrimidin-5-yl)carbonyl]pyridin-3-yl}-2-(4-isopropyl-1H-1,2,3-triazol-1-yl)acetamide] |
| 7.45 | CC(C)n1cc(C(=O)c2cncc(NC(=O)Cn3cc(C4CC4)nn3)c2)c2cnc(N)nc21 [Example 249, N-{5-[(2-amino-7-isopropyl-7H-pyrrolo[2,3-d]pyrimidin-5-yl)carbonyl]pyridin-3-yl}-2-(4-cyclopropyl-1H-1,2,3-triazol-1-yl)acetamide] |
| 8.46 | CC(C)n1cc(C(=O)c2cncc(NC(=O)Cc3ccc(Cl)cc3)c2)c2cnc(N)nc21 [Example 250, N-{5-[(2-amino-7-isopropyl-7H-pyrrolo[2,3-d]pyrimidin-5-yl)carbonyl]pyridin-3-yl}-2-(4-chlorophenyl)acetamide] |
| 7.48 | CC(C)n1ncc(CC(=O)Nc2cncc(C(=O)c3cn(C(C)C)c4nc(N)ncc34)c2)c1C(F)(F)F [Example 251, N-{5-[(2-amino-7-isopropyl-7H-pyrrolo[2,3-d]pyrimidin-5-yl)carbonyl]pyridin-3-yl}-2-[1-isopropyl-5-(trifluoromethyl)-1H-pyrazol-4-yl]acetamide] |
| 8.29 | CC(C)n1cc(C(=O)c2cncc(NC(=O)Cn3ccc(C(F)(F)F)n3)c2)c2cnc(N)nc21 [Example 252, N-{5-[(2-amino-7-isopropyl-7H-pyrrolo[2,3-d]pyrimidin-5-yl)carbonyl]pyridin-3-yl}-2-[3-(trifluoromethyl)-1H-pyrazol-1-yl]acetamide] |
| 8.41 | CC(C)n1cc(C(=O)c2cncc(NC(=O)Cn3ccc(C4CC4)n3)c2)c2cnc(N)nc21 [Example 253, N-{5-[(2-amino-7-isopropyl-7H-pyrrolo[2,3-d]pyrimidin-5-yl)carbonyl]pyridin-3-yl}-2-(3-cyclopropyl-1H-pyrazol-1-yl)acetamide] |
| 7.28 | CC(C)n1cc(CC(=O)Nc2cncc(C(=O)c3cn(C(C)C)c4nc(N)ncc34)c2)c(C(F)(F)F)n1 [Example 254, N-{5-[(2-amino-7-isopropyl-7H-pyrrolo[2,3-d]pyrimidin-5-yl)carbonyl]pyridin-3-yl}-2-[1-isopropyl-3-(trifluoromethyl)-1H-pyrazol-4-yl]acetamide] |
| 7.37 | CC(C)n1cc(C(=O)c2cncc(NC(=O)Cc3ccc(C#N)cn3)c2)c2cnc(N)nc21 [Example 255, N-{5-[(2-amino-7-isopropyl-7H-pyrrolo[2,3-d]pyrimidin-5-yl)carbonyl]pyridin-3-yl}-2-(5-cyanopyridin-2-yl)acetamide] |
| 8.96 | CC(C)(CO)n1cc(C(=O)c2cncc(NC(=O)Cc3cccc(C(F)(F)F)c3)c2)c2cnc(N)nc21 [Example 256, N-(5-{[2-amino-7-(2-hydroxy-1,1-dimethylethyl)-7H-pyrrolo[2,3-d]pyrimidin-5-yl]carbonyl}pyridin-3-yl)-2-[3-(trifluoromethyl)phenyl]acetamide] |
| 7.91 | CC(C)(CO)n1cc(C(=O)c2cncc(NC(=O)Cc3ccc4ocnc4c3)c2)c2cnc(N)nc21 [Example 257, N-(5-{[2-amino-7-(2-hydroxy-1,1-dimethylethyl)-7H-pyrrolo[2,3-d]pyrimidin-5-yl]carbonyl}pyridin-3-yl)-2-(1,3-benzoxazol-5-yl)acetamide] |
| 7.93 | CC(C)(CO)n1cc(C(=O)c2cncc(NC(=O)Cc3cccc(S(C)(=O)=O)c3)c2)c2cnc(N)nc21 [Example 258, N-(5-{[2-amino-7-(2-hydroxy-1,1-dimethylethyl)-7H-pyrrolo[2,3-d]pyrimidin-5-yl]carbonyl}pyridin-3-yl)-2-[3-(methylsulfonyl)phenyl]acetamide] |
| 8.06 | CC(C)(CO)n1cc(C(=O)c2cncc(NC(=O)Cc3ccc(C#N)cc3)c2)c2cnc(N)nc21 [Example 259, N-(5-{[2-amino-7-(2-hydroxy-1,1-dimethylethyl)-7H-pyrrolo[2,3-d]pyrimidin-5-yl]carbonyl}pyridin-3-yl)-2-(4-cyanophenyl)acetamide] |
| 7.77 | CC(C)n1ncc(CC(=O)Nc2cncc(C(=O)c3cn(C(C)(C)CO)c4nc(N)ncc34)c2)c1C(F)(F)F [Example 260, N-(5-{[2-amino-7-(2-hydroxy-1,1-dimethylethyl)-7H-pyrrolo[2,3-d]pyrimidin-5-yl]carbonyl}pyridin-3-yl)-2-[1-isopropyl-5-(trifluoromethyl)-1H-pyrazol-4-yl]acetamide] |
| 6.89 | CC(CO)(CO)n1cc(C(=O)c2cncc(NC(=O)Cc3ccc(C#N)c(C(F)(F)F)c3)c2)c2cncnc21 [Example 261] |
| 7.13 | CC(CO)(CO)n1cc(C(=O)c2cncc(NC(=O)Cc3ccc(F)c(C(F)(F)F)c3)c2)c2cncnc21 [Example 263, N-(5-(7-(1,3-dihydroxy-2-methylpropan-2-yl)-7H-pyrrolo[2,3-d]pyrimidine-5-carbonyl)pyridin-3-yl)-2-(4-fluoro-3-(trifluoromethyl)phenyl)acetamide] |
| 7.07 | CC(CO)(CO)n1cc(C(=O)c2cncc(NC(=O)c3cccc(C(F)(F)F)c3)c2)c2cncnc21 [Example 264, N-(5-(7-(1,3-dihydroxy-2-methylpropan-2-yl)-7H-pyrrolo[2,3-d]pyrimidine-5-carbonyl)pyridin-3-yl)-3-(trifluoromethyl)benzamide] |
| 7.16 | CC(CO)(CO)n1cc(C(=O)c2cncc(NC(=O)c3ccc(C(F)(F)F)c(F)c3)c2)c2cncnc21 [Example 265, N-(5-(7-(1,3-dihydroxy-2-methylpropan-2-yl)-7H-pyrrolo[2,3-d]pyrimidine-5-carbonyl)pyridin-3-yl)-3-fluoro-4-(trifluoromethyl)benzamide] |
